# ChEMBL document CHEMBL5725854, “Inhibitors of protein methyltransferase DOT1L and methods of use thereof” (2018)
# Target: Histone-lysine N-methyltransferase, H3 lysine-79 specific (Homo sapiens) (UniProt Q8TEK3)
# Sequence (Q8TEK3 whole entry, looked up): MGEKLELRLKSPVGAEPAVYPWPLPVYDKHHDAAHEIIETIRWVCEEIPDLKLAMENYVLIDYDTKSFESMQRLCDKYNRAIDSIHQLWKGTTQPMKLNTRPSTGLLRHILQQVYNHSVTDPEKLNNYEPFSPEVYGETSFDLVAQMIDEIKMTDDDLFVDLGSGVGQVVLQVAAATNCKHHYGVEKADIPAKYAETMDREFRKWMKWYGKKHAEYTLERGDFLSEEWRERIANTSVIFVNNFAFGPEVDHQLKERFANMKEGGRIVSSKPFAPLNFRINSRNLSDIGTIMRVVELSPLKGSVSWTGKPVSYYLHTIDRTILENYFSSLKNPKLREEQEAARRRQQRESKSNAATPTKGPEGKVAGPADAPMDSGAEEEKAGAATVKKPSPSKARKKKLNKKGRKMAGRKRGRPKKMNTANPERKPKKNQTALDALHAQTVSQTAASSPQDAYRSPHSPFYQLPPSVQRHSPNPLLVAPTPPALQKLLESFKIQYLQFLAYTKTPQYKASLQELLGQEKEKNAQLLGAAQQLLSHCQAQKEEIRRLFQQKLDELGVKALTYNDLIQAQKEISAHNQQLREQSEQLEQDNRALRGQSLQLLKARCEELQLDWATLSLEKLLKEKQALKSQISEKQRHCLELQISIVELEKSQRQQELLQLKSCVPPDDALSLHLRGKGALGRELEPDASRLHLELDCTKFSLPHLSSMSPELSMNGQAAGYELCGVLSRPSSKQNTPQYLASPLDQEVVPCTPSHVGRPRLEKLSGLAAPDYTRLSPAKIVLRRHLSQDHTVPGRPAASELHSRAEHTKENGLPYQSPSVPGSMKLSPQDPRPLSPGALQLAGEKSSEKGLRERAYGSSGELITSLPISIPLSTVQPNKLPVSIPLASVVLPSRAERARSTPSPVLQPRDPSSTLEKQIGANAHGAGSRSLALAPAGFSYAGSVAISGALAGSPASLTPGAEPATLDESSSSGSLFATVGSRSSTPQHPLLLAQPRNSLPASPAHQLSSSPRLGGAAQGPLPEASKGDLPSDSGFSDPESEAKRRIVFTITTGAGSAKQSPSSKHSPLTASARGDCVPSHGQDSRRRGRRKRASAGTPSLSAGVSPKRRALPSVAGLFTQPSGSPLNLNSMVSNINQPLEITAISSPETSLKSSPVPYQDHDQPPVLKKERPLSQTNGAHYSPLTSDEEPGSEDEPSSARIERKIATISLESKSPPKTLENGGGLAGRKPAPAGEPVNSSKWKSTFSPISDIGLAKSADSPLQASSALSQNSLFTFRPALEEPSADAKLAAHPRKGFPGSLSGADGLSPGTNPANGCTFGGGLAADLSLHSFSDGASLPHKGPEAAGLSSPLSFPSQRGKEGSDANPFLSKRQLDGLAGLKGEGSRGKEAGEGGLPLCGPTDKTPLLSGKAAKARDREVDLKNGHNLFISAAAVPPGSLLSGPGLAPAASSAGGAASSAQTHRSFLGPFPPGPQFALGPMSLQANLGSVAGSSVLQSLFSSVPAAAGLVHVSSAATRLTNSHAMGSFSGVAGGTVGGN
smiles,measurement,value
Nc1ncnc2c1ncn2[C@@H]1O[C@H](CSCC[C@H](N)OC=O)[C@@H](O)[C@H]1O,k off,0.1 s⁻¹
